“Also recorded” adds a separate entry of the source.
Columns and labels:
[1] = Blood–brain barrier permeability of fluorescently labelled compounds, fluorescence microscopy of brain sections; type: in vivo, rat; settings: pepstatin conjugated with carboxyfluorescein and LVV-H7 tagged with Dansyl, given i.p. to rats; brain tissue sections, fluorescence microscopy 10×
Method: (§1) LVV‐H7 was dissolved in 0.9% NaCl and administered intraperitoneally (i.p.) 15 min before experiments at doses of 0.5 and 1 mg/kg. Control groups received 0.9% NaCl injections in an equivalent volume and by the same route. Pepstatin (Sigma‐Aldrich) was dissolved in 0.9% NaCl and administered i.p. at 10 mg/kg. Ethanol (95% w/v, Polmos; Poznan, Poland) was diluted with 0.9% NaCl to a 15% w/v concentration. In the CPP procedure, ethanol at doses of 1 or 1.5 g/kg (15% w/v) was administered i.p. before each conditioning phase.
The fluorescent analogue of pepstatin was synthesized on the Tentagel S RAM resin. At first, the Fmoc‐Lys (Mtt)‐OH was introduced using COMU/DIPEA, according to the procedure described above. To remove the Mtt group, the dried resin was treated with the TFE/HFIP/TIS/DCM mixture: 1:2:0.5:6.5 (v/v). Labelling with 5(6)‐carboxyfluorescein was performed with 5(6)‐carboxyfluorescein/HOBt/DIC in a molar ratio of 1:1:1. […] The high‐resolution MS characterized the probe, and preparative HPLC assessed its purity.
We investigated the ability of synthesized LVV‐H7 and pepstatin to cross the blood–brain barrier (BBB). […] Brain tissue samples from treated rats were then analysed using fluorescence microscopy.
FIGURE 3 Rat brain sections under visible light and fluorescence microscopy 10×: (a) pepstatin labelled with carboxyfluorescein, (b) LVV‐H7 labelled with Dansyl.

[2] = system: NMDA receptor (NMDAR1); assay: Western blot densitometry of NMDA receptor expression in CNS structures after the CPP test; type: in vivo, rat; settings: ethanol alone versus control
Method: (§2) Brain structures and spinal cords isolated from the animals were homogenized in 50 μL of the buffer consisting of 50 mM Tris/HCl, pH 7.6 and 150 mM NaCl in the presence of a proteinase inhibitor cocktail (Roche). Cells were homogenized thrice on ice by sonication (5 s each). The homogenate was centrifuged at 25 000g for 30 min at 4°C. The final protein concentration in the supernatant was determined using a Bradford assay kit (Sigma‐Aldrich).
(§3) One‐dimensional polyacrylamide gel electrophoresis was performed after standardizing the samples according to their total protein concentration. Thirty microlitres of the Laemmli sample buffer (Bio‐Rad, USA) were added to the subsequent volume of each sample, followed by incubation for 5 min at 90°C in a Thermomixer (Eppendorf). According to the Bio‐Rad protocol, proteins were separated on the 10% SDS‐PAGE.
(§4) Mini Protean system and electrotransferred onto the PVDF membrane (Bio‐Rad, USA). The adequate antibodies confirmed the presence of proteins (Biorbyt, UK). […]
(§5) Protein expression levels were measured using standard Western blotting. SDS‐PAGE was performed after standardizing protein extracts based on total protein concentration (determined via the Bradford method), immunotransfer, and immunodetection. Densitometric analysis was conducted to quantify protein levels in all structures from five animals. […]

[3] = system: μ‐opioid receptor (OPRM1); assay: Western blot densitometry of OPRM1 expression in CNS structures after the CPP test; type: in vivo, rat; settings: ethanol alone versus control
Method: as §2, §3, §4, §5

[4] = system: DARPP‐32; assay: Western blot densitometry of DARPP‐32 expression in CNS structures after the CPP test; type: in vivo, rat; settings: alcohol alone
Method: as §2, §3, §4, §5

[5] = system: male Wistar rats; assay: Ethanol conditioned place preference (CPP) test; type: in vivo, rat
Method: All conducted experiments used male Wistar rats (Experimental Medicine Center, Lublin, Poland) weighing 220 ± 20 g. The animals were housed under standard laboratory conditions (22°C, 12:12‐h light–dark cycle; light on at 8:00 AM) in groups of four rats per cage. The animals were allowed 7 days for acclimation before experiments with access to standard food (Bacutil; Motycz, Poland) and water ad libitum. After 7 days of adaptation and handling, the animals were divided into groups of 7–8 and prepared for the tests. Behavioural experiments were carried out according to the National Institute of Health Guidelines for the Care and Use of Laboratory Animals and the European Community Council Directive for Care and Use of Laboratory Animals (86/609/EEC). The Local Ethics Committee approved them. Additionally, we confirm that ARRIVE guidelines report the study.
as §1
In our experiments, eight identical rectangular CPP boxes (60 cm × 35 cm × 30 cm), each one composed of three compartments: two large compartments (25 cm × 35 cm) and a smaller central grey compartment (10 cm × 10 cm), were used. In one of the compartments, the inside walls were white, and the floor held a large grid, whereas the walls of the other compartment were painted black, and the floor held a narrow grid. Illumination in the testing room was adjusted so that the environmental (visual and tactile) cues would not produce a significant baseline preference for a specific compartment. Both large compartments were separated from a central grey area by the removable guillotine doors, the opening of which provided access to the larger compartments. The apparatus was thoroughly cleaned between each test procedure and then wiped with dry paper towels to neutralize odour traces. […] The CPP performance was measured by computerized video tracking.
The CPP paradigm was carried out according to an unbiased procedure with minor modifications. […] The time spent in each compartment was measured during the pre‐test phase. […]
During the second phase (pre‐conditioning test), 24 h after the habituation session, rats were placed in the central grey square compartment of the CPP apparatus with free access to all compartments for 15 min. The time spent in each compartment was recorded with a computer programme. […]

**Q.** What does the source list for `CC(C)C[C@H](N)C(=O)N[C@H](C(=O)N[C@H](C(=O)N[C@@H](Cc1ccc(O)cc1)C(=O)N1CCC[C@H]1C(=O)N[C@@H](Cc1c[nH]c2ccccc12)C(=O)N[C@H](C(=O)N[C@@H](CCC(N)=O)C(=O)N[C@@H](CCCNC(=N)N)C(=O)N[C@@H](Cc1ccccc1)C(=O)O)[C@@H](C)O)C(C)C)C(C)C` [LVV‐H7, LVV‐hemorphin‐7]?
**A.** ability to cross the blood–brain barrier (BBB) [1]: successfully cross the BBB; enzyme involved in the production of fragment VV-H7 (proteins identified in active Fraction 29 of spinal cord homogenate, nanoLC-MALDI-MS/MS): puromycin‐sensitive aminopeptidase (PSA); degradation products of LVV-H7 after incubation with homogenates (rat spinal cord homogenate, DEAE fractions, LVV-hemorphin 60 μg/mL, 10 μL in 40 μL, Tris–HCl pH 7.4, 37°C, 1 h, read-out mass spectrometry): VVYPWTQRF, YPWTQRF, PWTQRF and LVVYPWTQR fragments were mainly revealed

**Q.** What does the source list for `CCO` [ethanol]?
**A.** NMDA receptor expression following EtOH administration [2]: statistically significant upregulation; OPRM1 expression following EtOH administration [3]: statistically significant upregulation; DARPP-32 expression after alcohol administration [4]: upregulation; time spent in the drug-associated compartment on the CPP test day ([5]; ethanol 1.0 g/kg i.p., 10-day conditioning, versus 0.9% NaCl group): did not change the time spent; also recorded: did not evoke any rewarding effects; time spent in the drug-paired compartment on the CPP test day (expression of ethanol-induced CPP) ([5]; ethanol 1.5 g/kg (15% w/v) i.p., 10-day conditioning, versus 0.9% NaCl group): spent significantly more time

**Q.** With pepstatin as the compound, how does the “ability to cross the blood–brain barrier (BBB)” value [1] read?
**A.** Its value is “successfully cross the BBB”.

**Q.** What about the “expression of ethanol-CPP after pepstatin pretreatment” value ([5]; pepstatin 10 mg/kg i.p. 5 min before each ethanol injection (1.5 g/kg, 15% w/v, i.p.) during 10-day conditioning, p < 0.001) of the same compound?
**A.** Its value is “significantly blocked the expression of ethanol‐CPP”.

**Q.** And the “time spent in the drug-associated compartment, pepstatin given alone” value ([5]; pepstatin 10 mg/kg i.p. before each conditioning session, no ethanol, versus 0.9% NaCl)?
**A.** Its value is “did not change the time spent”.

Source: paper PMC12412044, “The Role of LVV‐H7 in Alcohol‐Induced Reward Mechanisms” (Addiction Biology, 2025)
